# Key:
# A549 cells = experiment: competition cell experiment: inhibition of the uptake of 4R/S-[F-18]F-L-glutamic acid (tracer); type: cell-based, human; conditions: for % Tracer uptake: A549 cells, 10 min of incubation with 0.250 MBq of 4R/S-[F-18]F-L-Glu in PBS buffer, competitor concentration 1 mM, control = 100.0; for inhibition of tracer uptake: competitor 1 mM, tracer 4R/S-[F-18]F-L-glutamic acid
# Experimental: The uptake of the glutamic acid derivatives according to the invention into tumour cells was investigated in cell experiments. Here, the uptake of a radiolabelled glutamic acid derivative (4R/S—[F-18]F-L-glutamic acid) was examined in the presence of the compounds according to the invention (competition experiments). The compounds according to the invention were employed in excess (1 mM) over 4R/S—[F-18]F-L-glutamic acid (tracer).
# FIG. 1: graphic representation of the inhibition of the cellular uptake of 4R/S—[F-18]F-L-Glu by compounds according to the invention branched in the 4-position in A549 cells (human non-small-cell bronchial carcinoma) after 10 min of incubation.
# [1] = tested on: rats bearing H460 tumours; experiment: PET imaging in rats bearing H460 tumours; type: in vivo
# Experimental: (§1) (2S,4S)-2-Amino-4-(6-[F-18]fluorohexyl)pentanedioic acid was studied in rats bearing H460 tumours using PET imaging and subsequent organ distribution.
# (§2) The highest enrichment at 0.52% of the injected dose per g in the tumour was measured at a time of 100 min after injection. […] Thus, in these organs, an uptake of 0.36% ID/g and 0.20% ID/g, respectively, was observed after 100 min. Uptake into the bones was 0.43% ID/g.
# 60 min after i.v. administration of 15 MBq of (2S,4S)-2-amino-4-(6-[F-18]fluorohexyl)pentanedioic acid to rats bearing H460 tumours, data acquisition with a PET scanner (Inveon) was started for 30 minutes.
# FIG. 3. PET study of 60 to 90 min after injection of (2S,4S)-2-amino-4-(6-[F-18]fluorohexyl)pentanedioic acid into mice bearing H460 tumours (analysis of sections)
# FIG. 4. PET study of 60 to 90 min after injection of (2S,4S)-2-amino-4-(6-[F-18]fluorohexyl)pentanedioic acid into mice bearing H460 tumours (whole body imaging)
# A460 tumour cells = experiment: cellular uptake of the F-18-labelled compound in tumour cells; type: cell-based, human; conditions: for uptake, % of the dose per 100 000 cells: after 30 min of incubation
# Description: Following labelling with F-18, (4S)-4-(6-[F-18]fluorohexyl)-L-Glu was examined in cell experiments with A460 tumour cells (human non-small-cell bronchial carcinoma).
# [2] = tested on: rats bearing H460 tumours; experiment: organ distribution after i.v. administration to animals bearing H460 tumours; type: in vivo; conditions: 100 min after i.v. administration of 15 MBq
# Experimental: as §1, §2
# [3] = PET 60-90 min after i.v. administration of 15 MBq
compound,measurement,setting,value
NC(CC(F)C(=O)O)C(=O)O (racemic) [4-(R/S)-fluoro-D/L-Glu],% Tracer uptake,A549 cells,16.3%
C[C@@H](C[C@H](N)C(=O)O)C(=O)O [(4S)-methyl-Glu],% Tracer uptake,A549 cells,7.7%
"N[C@@H](C[C@H](CCCCCCF)C(=O)O)C(=O)O [(4S)-4-(6-fluorohexyl)-Glu, (2S,4S)-2-Amino-4-(6-fluorohexyl)pentanedioic acid]",% Tracer uptake,A549 cells,6.3%
same,inhibition of tracer uptake,A549 cells,94%
N[C@@H](C[C@H](O)C(=O)O)C(=O)O [(4S)-hydroxy-Glu],% Tracer uptake,A549 cells,13.2%
"N[C@@H](CCC(=O)O)C(=O)O [L-Glu, L-configured glutamic acid]",% Tracer uptake,A549 cells,12.6%
same,inhibition of tracer uptake,A549 cells,87%
"N[C@@H](C[C@H](CCCCCC[18F])C(=O)O)C(=O)O [(2S,4S)-2-Amino-4-(6-[F-18]fluorohexyl)pentanedioic acid]",PET image analysis: enrichment in the remainder of the body,[1]; [3],low enrichment
same,PET image analysis: uptake into the H460 tumour,[1]; [3],high uptake
same,PET study: uptake or excretion in the kidneys or pancreas,[1]; PET study,transient uptake or excretion
same,"uptake, % of the dose per 100 000 cells",A460 tumour cells; listed as 4-(6-[F-18]fluorohexyl)-L-Glu,11.2 % of the dose per 100 000 cells
same,"uptake, % of the dose per 100 000 cells",A460 tumour cells; listed as (4S)-4-(6-[F-18]fluorohexyl)-L-Glu,11.2 % of the dose per 100 000 cell
same,time course of cellular uptake,"A460 tumour cells; tumour cells, F-18-labelled compound",time-dependent cellular uptake
same,% ID/g Tumour,[2]; H460 tumour,0.52 % ID/g
same,% ID/g Blood,[2]; H460 tumour bearing animals,0.04 % ID/g
same,% ID/g Bones,[2]; H460 tumour bearing animals,0.43 % ID/g
same,% ID/g Kidney,[2]; H460 tumour bearing animals,0.36 % ID/g
same,% ID/g Liver,[2]; H460 tumour bearing animals,0.08 % ID/g
same,% ID/g Muscle,[2]; H460 tumour bearing animals,0.02 % ID/g
same,% ID/g Pancreas,[2]; H460 tumour bearing animals,0.20 % ID/g
N[C@@H](C[C@H](CCCF)C(=O)O)C(=O)O [(4S)-4-(3-fluoropropyl)-Glu],% Tracer uptake,A549 cells,5.4%
"NC(CC(OC1CC(F)C1)C(=O)O)C(=O)O [(4S)-4-(3-fluorocyclobutoxy)-Glu, 2-Amino-4-(3-fluorocyclobutoxy)pentanedioic acid]",% Tracer uptake,A549 cells,5.7%
same,inhibition of tracer uptake,A549 cells,> 90%

# — patent US20110104057A1, “Novel [F-18]-labelled L-glutamic acid and L-glutamine derivatives (II), their use and processes for their preparation” (BAYER SCHERING PHARMA AKTIENGESELLSCHAFT, priority 2008, published 2011)
